Experimental data taken from patent US11161850B2, “Fused pyrazine derivatives as A2A / A2B inhibitors” (Incyte Corporation, priority 2018, dated 2021).
pEC50, pKi: −log10 of the molar value. Like-named read-outs stand apart in the source and are kept apart here.

What was measured:
[1] = biological target: Adenosine A2A (Homo sapiens (Human), UniProt P29274); experiment: A2A Tag-Lite HTRF assay; assay type: binding
Source text: Example C. A2A Tag-Lite® HTRF Assay

[2] = biological target: human adenosine A2B receptor (Homo sapiens (Human), UniProt P29275); experiment: Adenosine A2B Receptor Cyclic AMP GS Assay; assay type: cell-based; conditions: HEK-293 cells expressing human A2B, agonist NECA 12 nM; for EC50: A2B_cAMP_EC50 (nM); for pEC50: read-out: A2B_cAMP_EC50
How it was run: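 Stably transfected HEK-293 cells were preincubated with compound for 30 min at room temperature, then stimulated with 12 nM NECA for 60 min. cAMP accumulation was read by FRET (665/620 ratio), and EC50 was fitted from percent of control versus log compound concentration.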

[3] = Tag-Lite Adenosine A2A labeled cells, fluorescent ligand 12.5 nM, read-out: A2A_Ki
[4] = read-out: A2A_Ki, Tag-Lite Adenosine A2A labeled cells, fluorescent ligand 12.5 nM

Chain of human adenosine A2B receptor (P29275 whole entry): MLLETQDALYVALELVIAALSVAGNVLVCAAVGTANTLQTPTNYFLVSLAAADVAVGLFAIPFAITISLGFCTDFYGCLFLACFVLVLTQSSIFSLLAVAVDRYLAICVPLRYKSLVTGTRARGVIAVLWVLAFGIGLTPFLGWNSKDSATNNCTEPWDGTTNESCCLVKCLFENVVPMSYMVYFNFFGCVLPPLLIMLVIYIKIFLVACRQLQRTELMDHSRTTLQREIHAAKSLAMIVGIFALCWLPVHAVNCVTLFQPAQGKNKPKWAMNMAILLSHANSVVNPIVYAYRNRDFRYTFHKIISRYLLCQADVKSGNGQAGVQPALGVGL
Chain of Adenosine A2A (P29274 whole entry): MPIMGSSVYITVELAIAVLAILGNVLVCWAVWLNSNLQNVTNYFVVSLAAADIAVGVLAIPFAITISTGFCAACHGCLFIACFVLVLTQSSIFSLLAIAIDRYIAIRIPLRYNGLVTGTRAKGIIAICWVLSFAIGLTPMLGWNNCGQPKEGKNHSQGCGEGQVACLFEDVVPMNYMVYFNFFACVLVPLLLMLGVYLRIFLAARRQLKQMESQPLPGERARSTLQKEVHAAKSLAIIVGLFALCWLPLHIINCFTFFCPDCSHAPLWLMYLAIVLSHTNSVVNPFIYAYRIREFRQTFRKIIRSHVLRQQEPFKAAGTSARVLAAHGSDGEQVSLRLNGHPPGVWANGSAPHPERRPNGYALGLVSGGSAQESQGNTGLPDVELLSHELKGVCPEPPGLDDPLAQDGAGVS

Structure (SMILES) | pKi [1] | EC50 [2] [nM] | pKi [1, 3] | pKi [1, 4] | pEC50 [2]
N#Cc1cccc(-c2nc(N)c3nc(C(O)c4c(F)cccc4OC(F)F)nn3c2-c2ccncn2)c1 (single isomer, unassigned) [Example 97, 3-(8-amino-2-((2-(difluoromethoxy)-6-fluorophenyl)(hydroxy)methyl)-5-(pyrimidin-4-yl)-[1,2,4]triazolo[1,5-a]pyrazin-6-yl)benzonitrile] | > 8.00 | < 10 |  |  | 
CCN(CC)C(=O)c1cc2c(N)nc(-c3cccc(C#N)c3)c(-c3ccncn3)n2n1 [Example 10, 4-Amino-6-(3-cyanophenyl)-N,N-diethyl-7-(pyrimidin-4-yl)pyrazolo[1,5-a]pyrazine-2-carboxamide] |  | < 10 | > 8.00 |  | 
CCn1nccc1-c1c(-c2cccc(C#N)c2)nc(N)c2nc(C(O)c3c(F)cccc3F)nn12 (single isomer, unassigned) [Example 93, 3-(8-amino-2-((2,6-difluorophenyl)(hydroxy)methyl)-5-(1-ethyl-1H-pyrazol-5-yl)-[1,2,4]triazolo[1,5-a]pyrazin-6-yl)benzonitrile] |  |  |  | > 8.00 | > 8.00
CCc1ncoc1-c1c(-c2cccc(C#N)c2)nc(N)c2nc(Cc3ccccn3)nn12 [Example 43, 3-(8-Amino-5-(4-ethyloxazol-5-yl)-2-(pyridin-2-ylmethyl)-[1,2,4]triazolo[1,5-a]pyrazin-6-yl)benzonitrile] |  | < 10 | > 8.00 |  | 
N#Cc1cccc(-c2nc(N)c3cc(C(O)c4ccccc4F)nn3c2-c2ccncn2)c1 (stereo not drawn) [Example 38, 3-(4-Amino-2-((2-fluorophenyl)(hydroxy)methyl)-7-(pyrimidin-4-yl)pyrazolo[1,5-a]pyrazin-6-yl)benzonitrile] |  | < 10 | > 8.00 |  | 
N#Cc1cccc(-c2cn3nc(Cc4ncccc4Nc4cnn(Cc5ccncc5)c4)nc3c(N)n2)c1F [Example 120, 3-(8-Amino-2-((3-((1-(pyridin-4-ylmethyl)-1H-pyrazol-4-yl)amino)pyridin-2-yl)methyl)-[1,2,4]triazolo[1,5-a]pyrazin-6-yl)-2-fluorobenzonitrile] |  | 10 to 100 | > 8.00 |  | 
Cc1ncoc1-c1c(-c2cccc(C#N)c2)nc(N)c2nc(C(=O)N3CCC3)nn12 [Example 61, 3-(8-Amino-2-(azetidine-1-carbonyl)-5-(4-methyloxazol-5-yl)-[1,2,4]triazolo[1,5-a]pyrazin-6-yl)benzonitrile] |  | < 10 | > 8.00 |  | 
Cn1nccc1-c1cccc(F)c1Cc1nc2c(N)nc(-c3cccc(C#N)c3)c(-c3ccncn3)n2n1 [Example 64, 3-(8-amino-2-(2-fluoro-6-(1-methyl-1H-pyrazol-5-yl)benzyl)-5-(pyrimidin-4-yl)-[1,2,4]triazolo[1,5-a]pyrazin-6-yl)benzonitrile] |  | < 10 | > 8.00 |  | 
N#Cc1cccc(-c2nc(N)c3nc(C(O)c4cccc(F)c4F)nn3c2-c2ccncn2)c1 (single isomer, unassigned) [Example 54, 3-(8-Amino-2-((2,3-difluorophenyl)(hydroxy)methyl)-5-(pyrimidin-4-yl)-[1,2,4]triazolo[1,5-a]pyrazin-6-yl)benzonitrile] |  |  |  | > 8.00 | > 8.00
N#Cc1cccc(-c2nc(N)c3nc(C(O)c4c(F)cccc4F)nn3c2-c2ccncn2)c1 (single isomer, unassigned) [Example 50, 3-(8-Amino-2-((2,6-difluorophenyl)(hydroxy)methyl)-5-(pyrimidin-4-yl)-[1,2,4]triazolo[1,5-a]pyrazin-6-yl)benzonitrile] |  |  |  | > 8.00 | > 8.00
COc1cccc(Cc2nc3c(N)nc(-c4cccc(C#N)c4)c(-c4ccc(=O)n(C)n4)n3n2)n1 [Example 128, 3-(8-amino-2-((6-methoxypyridin-2-yl)methyl)-5-(1-methyl-6-oxo-1,6-dihydropyridazin-3-yl)-[1,2,4]triazolo[1,5-a]pyrazin-6-yl)benzonitrile] |  | 10 to 100 | > 8.00 |  | 
N#Cc1cccc(-c2nc(N)c3cc(C(=O)N4CCCC4)nn3c2-c2ccncn2)c1 [Example 8, 3-(4-Amino-7-(pyrimidin-4-yl)-2-(pyrrolidine-1-carbonyl)pyrazolo[1,5-a]pyrazin-6-yl)benzonitrile] |  | 10 to 100 | > 8.00 |  | 
N#Cc1cccc(-c2nc(N)c3nc(Cc4c(F)cccc4CN4CC(C(=O)O)C4)nn3c2-c2ccncn2)c1 [Example 31, 1-(2-((8-Amino-6-(3-cyanophenyl)-5-(pyrimidin-4-yl)-[1,2,4]triazolo[1,5-a]pyrazin-2-yl)methyl)-3-fluorobenzyl)azetidine-3-carboxylic Acid] |  | 10 to 100 | > 8.00 |  | 
CN1CC[C@H](NCc2cccc(F)c2Cc2nc3c(N)nc(-c4cccc(C#N)c4F)cn3n2)C1=O [Example 84, (S)-3-(8-amino-2-(2-fluoro-6-(((1-methyl-2-oxopyrrolidin-3-yl)amino)methyl)benzyl)-[1,2,4]triazolo[1,5-a]pyrazin-6-yl)-2-fluorobenzonitrile] |  | < 10 | > 8.00 |  | 
N#Cc1cccc(-c2nc(N)c3nc(C(O)c4c(F)cccc4OC(F)F)nn3c2-c2ccncn2)c1 (single isomer, unassigned) [Example 98, 3-(8-amino-2-((2-(difluoromethoxy)-6-fluorophenyl)(hydroxy)methyl)-5-(pyrimidin-4-yl)-[1,2,4]triazolo[1,5-a]pyrazin-6-yl)benzonitrile] |  |  |  | > 8.00 | > 8.00
N#Cc1cccc(-c2nc(N)c3nc(Cn4ncc5ccccc54)nn3c2-c2ccncn2)c1 [Example 48, 3-(2-((1H-Indazol-1-yl)methyl)-8-amino-5-(pyrimidin-4-yl)-[1,2,4]triazolo[1,5-a]pyrazin-6-yl)benzonitrile] |  | 10 to 100 | > 8.00 |  | 
Cc1cccnc1COc1nc2c(N)nc(-c3cccc(C#N)c3)c(-c3ccncn3)n2n1 [Example 119, 3-(8-amino-2-((3-methylpyridin-2-yl)methoxy)-5-(pyrimidin-4-yl)-[1,2,4]triazolo[1,5-a]pyrazin-6-yl)benzonitrile] |  | < 10 | > 8.00 |  | 
N#Cc1cccc(-c2cn3nc(C(O)c4c(F)cccc4CN4CCN5C(=O)CCC5C4)nc3c(N)n2)c1F (racemic) [Example 113, 3-(8-amino-2-((2-fluoro-6-((6-oxohexahydropyrrolo[1,2-a]pyrazin-2(1H)-yl)methyl)phenyl)(hydroxy)methyl)-[1,2,4]triazolo[1,5-a]pyrazin-6-yl)-2-fluorobenzonitrile] |  | 10 to 100 | > 8.00 |  | 
N#Cc1cccc(-c2nc(N)c3nc(Cn4cccc5ccnc4-5)nn3c2-c2ccncn2)c1 [Example 33, 3-(2-((7H-pyrrolo[2,3-b]pyridin-7-yl)methyl)-8-amino-5-(pyrimidin-4-yl)-[1,2,4]triazolo[1,5-a]pyrazin-6-yl)benzonitrile] |  | < 10 | > 8.00 |  | 
C[C@@]1(C(=O)O)CCN(Cc2cccc(F)c2Cc2nc3c(N)nc(-c4cccc(C#N)c4)c(-c4ccncn4)n3n2)C1 [Example 65, (R)-1-(2-((8-amino-6-(3-cyanophenyl)-5-(pyrimidin-4-yl)-[1,2,4]triazolo[1,5-a]pyrazin-2-yl)methyl)-3-fluorobenzyl)-3-methylpyrrolidine-3-carboxylic Acid] |  | 10 to 100 | > 8.00 |  | 
N#Cc1cccc(-c2cn3nc(Cc4ccccc4F)c(C#N)c3c(N)n2)c1 [Example 21, 4-Amino-6-(3-cyanophenyl)-2-(2-fluorobenzyl)pyrazolo[1,5-a]pyrazine-3-carbonitrile] |  | 100 to 1000 | > 8.00 |  | 
CCn1nccc1-c1c(-c2cccc(C#N)c2)nc(N)c2nc(C(O)c3c(F)cccc3F)nn12 (single isomer, unassigned) [Example 92, 3-(8-amino-2-((2,6-difluorophenyl)(hydroxy)methyl)-5-(1-ethyl-1H-pyrazol-5-yl)-[1,2,4]triazolo[1,5-a]pyrazin-6-yl)benzonitrile] | > 8.00 | < 10 |  |  | 
N#Cc1cccc(-c2nc(N)c3cc(C(O)c4ccccc4F)nn3c2-c2ccncn2)c1 (racemic) [Example 23, 3-(4-Amino-2-((2-fluorophenyl)(hydroxy)methyl)-7-(pyrimidin-4-yl)pyrazolo[1,5-a]pyrazin-6-yl)benzonitrile] |  | < 10 | > 8.00 |  | 
Cn1cc(-c2cccc(F)c2Cc2nc3c(N)nc(-c4cccc(C#N)c4F)cn3n2)cn1 [Example 83, 3-(8-amino-2-(2-fluoro-6-(1-methyl-1H-pyrazol-4-yl)benzyl)-[1,2,4]triazolo[1,5-a]pyrazin-6-yl)-2-fluorobenzonitrile] |  | < 10 | > 8.00 |  | 
N#Cc1cccc(-c2nc(N)c3nc(C(O)c4c(F)cccc4F)nn3c2-c2ccncn2)c1 (single isomer, unassigned) [Example 49, 3-(8-Amino-2-((2,6-difluorophenyl)(hydroxy)methyl)-5-(pyrimidin-4-yl)-[1,2,4]triazolo[1,5-a]pyrazin-6-yl)benzonitrile] | > 8.00 | < 10 |  |  | 
Cc1ncoc1-c1c(-c2cccc(C#N)c2F)nc(N)c2nc(Cc3ccccn3)nn12 [Example 86, 3-(8-amino-5-(4-methyloxazol-5-yl)-2-(pyridin-2-ylmethyl)-[1,2,4]triazolo[1,5-a]pyrazin-6-yl)-2-fluorobenzonitrile] |  | < 10 | > 8.00 |  | 
N#Cc1cccc(-c2nc(N)c3nc(Cc4c(F)cccc4CN[C@H]4CCNC4=O)nn3c2-c2ccncn2)c1 [Example 68, (S)-3-(8-amino-2-(2-fluoro-6-(((2-oxopyrrolidin-3-yl)amino)methyl)benzyl)-5-(pyrimidin-4-yl)-[1,2,4]triazolo[1,5-a]pyrazin-6-yl)benzonitrile] |  | 10 to 100 | > 8.00 |  | 
